Measured values reported in patent US20240092741A1, “COMPOSITION FOR PREVENTION OR TREATMENT OF NEUROFIBROMATOSIS TYPE 2 SYNDROME” (PRG S&TECH INC., priority 2021, published 2024).

Assays:
[1] = tested on: TGF-β signaling; assay: 3TP-luciferase assay in HEI-193 cells; format: cell-based, human; details: high concentrations, TGF-β1 2 ng/ml (FIG. 8D)
Method: To estimate the transcriptional activity of TGF-β signaling, 3TP-Luc vectors were transfected into cells for 24 hours, and the cells were treated with the indicated chemicals. After washing with wash buffer (Promega, Wisconsin, USA), the cells were lysed using lysis buffer (Promega, Wisconsin, USA). Luciferase activity was measured using a luminometer (MicroDigital, Gyeonggi-do, Korea).

[2] = tested on: RKIP; assay: Immunoblotting of transfected wild-type and mutant RKIP; format: cell-based; details: 10 μM, 24 h (FIG. 8E)
Method: pCMV RKIP-HA was provided by Keum G (David Geffen School of Medicine at University of California, Los Angeles, CA, USA). pCMV RKIP-T101A-HA and pCMV RKIP-T101D-HA were generated by Dr. J. H. Hwang (Pusan National University). pcDNA3 NF2-FLAG, pRK5 TGF beta type 1 receptor-FLAG, and TGF beta type 2 receptor-HA were obtained from Addgene (Cambridge, MA, USA). Transfection was performed using the Jetpei transfection agent (Polyplus New York, USA) for mammalian expression of these vectors.
In other words, cells were seeded at a density of 2×10^5 cells/well in 12-well plates and cultured overnight before transfection. The vector (1.5 μg) was mixed with 1.5 μl of Jetpei reagent dissolved in 150 mM NaCl solution. The mixture was reacted at room temperature for 15 minutes, and then added to the cells. After 3 hours, the serum-free medium 15 was replaced with medium supplemented with 10% FBS.
Cells were harvested and lysed using RIPA buffer [50 mM Tris-Cl, pH 7.5, 150 mM NaCl, 1% NP-40, 0.1% SDS, and 10% sodium deoxycholate] to examine cellular signaling. Protein concentrations in samples were measured using Bio-Rad (Hercules, CA, USA) protein assay kits and BSA standards. […] The blots were detected using an HRP-conjugated secondary antibody using ECL kit (Intron, Seoul, Korea).

[3] = tested on: HEI-193 cells; assay: Cell proliferation (cell counting) in HEI-193 cells; format: cell-based, human; details: 10 μM, indicated time (FIG. 12B)
Method: Cell growth curves were analyzed by seeding 2×10^4 cells/well into a 6-well plate. After the indicated day, the cells were trypsinized and dissociated into single cells. A minimum of 10,000 cells were counted using an Attune NxT flow cytometer (Thermo Fisher Scientific, Inc., Rockford, IL, USA).

[4] = tested on: HEI-193 cells; assay: RT-PCR gene expression in HEI-193 cells; format: cell-based, human
Method: For RT-PCR, total cellular RNA was extracted using an RNA extraction kit (Qiagen). Gene expression analysis was performed using cDNA synthesized from total RNA with MMLV RT (Invitrogen, Carlsbad, USA) and random hexamer. PCR from genomic DNA was performed using DiaStar Taq DNA polymerase (SolGent, Daejeon, Korea), and gene expression analysis was performed using the following specific primers: […]

Q: `CCN(CC)CCOc1ccc(-c2nnn(Cc3ccc(OC)cc3)c2N)cc1` [PRG-N-01, 4-(4-(2-(diethylamino)ethoxy)phenyl)-1-(4-methoxybenzyl)-1H-1,2,3-triazol-5-amino] was tested. Which “TGF-β signaling (3TP-luciferase activity)” value [1] did it give?
A: The value was “did not inhibit TGF-β signaling even at high concentrations”.

Q: What about the “wild-type RKIP expression” value ([2]; HEI-193 and mouse schwannoma cells transfected with WT RKIP) of the same compound?
A: The value was “induced wild-type RKIP expression”.

Q: What about the “expression of RKIP mutants (T101A stable form, T101D unstable form)” value ([2]; HEI-193 and mouse schwannoma cells transfected with mutants) of the same compound?
A: The value was “did not alter the expression”.

Q: What about the “cell growth (cell count)” value [3] of the same compound?
A: The value was “completely inhibited cell growth”.

Q: What about the “expression of cell cycle-related genes (CDK1, CDK4, CCNB1, PLK4)” value ([4]; RT-PCR (FIG. 12D)) of the same compound?
A: The value was “decreased”.

Q: What about the “expression of schwann cell markers (PLP, MBP, GFAP MPZ, PMP22, SOX10)” value ([4]; RT-PCR (FIGS. 12D, 13C)) of the same compound?
A: The value was “increased”.
